From ChEMBL document CHEMBL1125116 (J Med Chem, 1990)

Assays:
[1] = Maximum […] (Bmax) was determined.; format: ADME, organism-based; conditions: in vivo
[2] = target: T1, D(2) dopamine receptor (Rattus norvegicus, UniProt P61169); assay: Evaluated in vitro for the affinity towards Dopamine receptor D2 of rat striatal tissue
[3] = target: T1, D(2) dopamine receptor; assay: Competitive binding assay against Dopamine receptor D2 in rat striatal membranes and [125I]-IBF radioligand; format: cell membranes, Striatum, Membrane

T1 sequence (P61169 whole entry): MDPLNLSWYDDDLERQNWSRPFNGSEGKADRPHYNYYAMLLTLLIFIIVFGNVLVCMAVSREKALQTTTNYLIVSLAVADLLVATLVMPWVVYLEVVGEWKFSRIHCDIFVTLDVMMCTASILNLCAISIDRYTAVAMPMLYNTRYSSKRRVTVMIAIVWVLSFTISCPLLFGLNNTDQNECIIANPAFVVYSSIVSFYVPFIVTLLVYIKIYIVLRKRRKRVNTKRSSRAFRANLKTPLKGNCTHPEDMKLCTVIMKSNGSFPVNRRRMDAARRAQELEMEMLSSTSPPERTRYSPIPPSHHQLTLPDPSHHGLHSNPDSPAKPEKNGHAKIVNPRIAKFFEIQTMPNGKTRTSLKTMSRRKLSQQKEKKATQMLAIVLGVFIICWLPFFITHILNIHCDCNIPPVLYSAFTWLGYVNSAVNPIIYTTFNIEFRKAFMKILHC

| SMILES | Bmax [1] | Kd [2] | Ki [3] |
| --- | --- | --- | --- |
| CN1CN(c2ccccc2)C2(CCN(CCCC(=O)c3ccc(F)cc3)CC2)C1=O [MESPIPERONE] | 16.6 pM/g | 0.097 nM | – |
| NC1CCc2cc(O)c(O)cc2C1 (racemic) | – | – | 65.7 nM |
